What was measured:
mMSCs [1] = assay: FACS analysis of surface expression on mouse MSCs; assay type: cell-based; details: for EGFR surface expression: kynurenine 5 hours, with/without 10 μM CH-223191 pre-treatment 16 hours; for MHC I expression: FACS
Method: (§1) TCT MSCs were treated with 40pM hTGFβ (PeproTech, Israel) for 24 h, and then with a cocktail of 40 pM hTGFβ, 100 ng/ml h/mIFNγ (PeproTech, Israel) and 150 μM Kynurenine (Sigma, Switzerland) for an additional 24 h before they were used for experiments.
(§2) FACS analysis. The phenotype of the MSCs was analyzed by FACS using anti-CD29-PB and anti-hCD45-FITC (Biolegend), anti-CD11b-APC, anti-CD44-PE and anti-mCD45-FITC (SouthernBiotech), anti-CD105-PB, anti-CD73-PE, anti-CD90-PE and anti-Sca1-PE (eBioscience), anti-CD44-V450, anti-CD105-APC, anti-HLA DR-APC and anti-HLA ABC-PE (BD Bioscience) antibodies. The expression level of PD-L1 in mMSCs was analyzed by FACS with anti-B7-H1-PE (PD-L1) (eBioscience). To analyze EGFR internalization in kynurenine treated mMSCs, mMSCs were cultured in the presence of 10 μM CH223191 (Merck-Millipore) for 16 hours and then kynurenine was added for an additional 5 hours. EGFR expression was analyzed by FACS using anti-EGFR-PE (Bioss). FACS was performed using the aMACSQuant analyzer (Miltenyi Biotech, Germany) and the data was analyzed using FCS Express V3 software.

hMSCs [2] = assay: qPCR expression analysis in treated human MSCs; assay type: cell-based; details: for upregulation of COX2 by kynurenine: human MSCs, presence or absence of 10 μM CH-223191
Method: Human MSCs (hMSCs). Bone marrow for hMHC was obtained from 17 adult healthy donors, males and females, following informed consent and under institutional Helsinki approval; hMSCs were cultured as previously described and the cells were used for experiments after 3-6 passages (Resnick, Barkats et al. 2013). TCT MSCs were treated with 40pM hTGFβ (PeproTech, Israel) for 24 h, and then with a cocktail of 40 pM hTGFβ, 100 ng/ml h/mIFNγ (PeproTech, Israel) and 150 μM Kynurenine (Sigma, Switzerland) for an additional 24 h before they were used for experiments. RNA extraction and PCR analysis. Total cellular RNA was extracted using RNeasy® Mini Kit columns (QIAGEN) according to the manufacturer's protocols. 1 μg of total RNA was used to synthesize cDNA using High-Capacity cDNA kit (Applied Biosystems) following the supplier's instructions. Detection of transcript levels of iNOS, IDO, COX2, IL-6, CYP1a1 and CYP1b1, were performed using the TaqMan Gene Expression Assay Kit (Applied Biosystems), using HPRT-1 as a reference. All primers were purchased from Applied Biosystems. Real-Time PCR reactions were conducted using StepOne Plus (Applied Biosystems). Data was analyzed by StepOne Software version 2.2 (Applied Biosystems).

[3] = target: T1, aryl hydrocarbon receptor (AhR) (Homo sapiens, UniProt P35869); assay: AhR activation in human MSCs (qPCR of AhR dependent gene Cyp1a1); assay type: cell-based
T1 construct: Mouse and human MSCs were obtained from C57BL/6 mice and healthy donor BM respectively; endogenous in cells; host or cells: primary human MSCs from healthy donor bone marrow
T1 sequence (P35869 11-848): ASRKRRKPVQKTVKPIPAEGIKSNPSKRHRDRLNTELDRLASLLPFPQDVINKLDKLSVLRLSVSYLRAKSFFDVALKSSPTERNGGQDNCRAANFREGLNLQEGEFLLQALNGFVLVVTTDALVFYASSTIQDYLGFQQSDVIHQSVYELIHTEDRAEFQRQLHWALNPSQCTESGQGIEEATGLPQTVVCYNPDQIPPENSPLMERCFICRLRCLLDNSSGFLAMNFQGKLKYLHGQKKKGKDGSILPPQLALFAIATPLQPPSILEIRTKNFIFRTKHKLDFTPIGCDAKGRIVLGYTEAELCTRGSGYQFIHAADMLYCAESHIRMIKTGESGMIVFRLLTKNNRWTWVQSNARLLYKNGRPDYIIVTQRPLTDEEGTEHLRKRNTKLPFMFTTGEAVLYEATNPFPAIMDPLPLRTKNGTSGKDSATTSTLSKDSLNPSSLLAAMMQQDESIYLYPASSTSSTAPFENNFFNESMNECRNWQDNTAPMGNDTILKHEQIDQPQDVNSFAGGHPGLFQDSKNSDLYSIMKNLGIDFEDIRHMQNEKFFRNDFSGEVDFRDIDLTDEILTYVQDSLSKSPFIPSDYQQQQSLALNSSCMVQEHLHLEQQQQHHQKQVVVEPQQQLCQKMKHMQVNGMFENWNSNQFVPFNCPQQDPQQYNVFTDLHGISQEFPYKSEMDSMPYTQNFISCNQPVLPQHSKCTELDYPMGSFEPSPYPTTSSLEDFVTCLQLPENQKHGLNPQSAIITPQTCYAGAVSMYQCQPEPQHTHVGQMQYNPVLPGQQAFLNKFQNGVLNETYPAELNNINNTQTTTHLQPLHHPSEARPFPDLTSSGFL
Method: (§3) RNA extraction and PCR analysis. Total cellular RNA was extracted using RNeasy® Mini Kit columns (QIAGEN) according to the manufacturer's protocols. 1 μg of total RNA was used to synthesize cDNA using High-Capacity cDNA kit (Applied Biosystems) following the supplier's instructions. Detection of transcript levels of iNOS, IDO, COX2, IL-6, CYP1a1 and CYP1b1, were performed using the TaqMan Gene Expression Assay Kit (Applied Biosystems), using HPRT-1 as a reference. All primers were purchased from Applied Biosystems. Real-Time PCR reactions were conducted using StepOne Plus (Applied Biosystems). Data was analyzed by StepOne Software version 2.2 (Applied Biosystems).
(§4) To evaluate whether kynurenine activates AhR in mMSCs, the mRNA of treated/non-treated MSCs were tested for the expression level of two AhR dependent genes, Cyp1a1 and Cyp1b1. […] To ascertain that the up-regulation of these genes is AhR dependent, MSCs were treated with kynurenine for 24 hours in the presence/absence of the AhR antagonist CH-223191. The up-regulation of Cyp1a1 by kynurenine is inhibited in the presence of the antagonist both in mouse and human MSCs (previous FIGS. 9B, C).

[4] = target: T2, aryl hydrocarbon receptor (AhR) (Mus musculus, UniProt P30561); assay: AhR activation in mouse MSCs (qPCR of AhR dependent genes Cyp1a1, Cyp1b1); assay type: cell-based
T2 construct: Mouse and human MSCs were obtained from C57BL/6 mice and healthy donor BM respectively; endogenous in cells; host or cells: primary mouse MSCs from C57BL/6 mice
T2 sequence (P30561 10-805 limits assumed): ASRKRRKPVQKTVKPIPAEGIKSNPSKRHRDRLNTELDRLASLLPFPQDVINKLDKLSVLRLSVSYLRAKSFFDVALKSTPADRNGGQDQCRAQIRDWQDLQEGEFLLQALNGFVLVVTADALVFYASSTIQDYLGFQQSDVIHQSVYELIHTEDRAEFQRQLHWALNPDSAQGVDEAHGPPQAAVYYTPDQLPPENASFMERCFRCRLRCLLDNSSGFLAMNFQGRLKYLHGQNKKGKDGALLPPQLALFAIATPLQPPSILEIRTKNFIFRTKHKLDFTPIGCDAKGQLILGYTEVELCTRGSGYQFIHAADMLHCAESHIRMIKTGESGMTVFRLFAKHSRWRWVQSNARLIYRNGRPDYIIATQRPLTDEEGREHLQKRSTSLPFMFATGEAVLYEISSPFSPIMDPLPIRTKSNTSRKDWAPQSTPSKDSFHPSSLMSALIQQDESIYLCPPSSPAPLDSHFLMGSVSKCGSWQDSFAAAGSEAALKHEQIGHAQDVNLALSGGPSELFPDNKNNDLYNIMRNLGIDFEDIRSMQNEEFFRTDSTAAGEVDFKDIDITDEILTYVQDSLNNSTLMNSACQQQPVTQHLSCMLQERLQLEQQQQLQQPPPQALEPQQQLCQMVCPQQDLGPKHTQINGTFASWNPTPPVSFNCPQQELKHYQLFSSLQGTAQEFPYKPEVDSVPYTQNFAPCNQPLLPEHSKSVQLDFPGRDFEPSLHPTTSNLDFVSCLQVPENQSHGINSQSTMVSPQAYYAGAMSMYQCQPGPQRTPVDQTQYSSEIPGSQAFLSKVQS
Method: as §3, §4

mMSCs [5] = assay: qPCR expression analysis in treated mouse MSCs; assay type: cell-based; details: for IL-6 mRNA expression: combination treatments, with/without 10 μM CH-223191; for COX2 mRNA expression: qPCR, combinations of TGFβ, IFNγ, kynurenine
Method: MSCs isolation and culture. Mouse MSCs (mMSCs) were obtained from the bone marrow (BM) of C57BL/6 mice. BM cells were cultured at a concentration of 1*10^6 cells/ml in Mesencult basal medium supplemented with MSC stimulatory supplements (StemCell Technologies, Vancouver, BC), at 37° C. with 10% CO2. After 2-3 passages, the cells were harvested and CD11b^+ cells were depleted by EasySep® cell separation kit (StemCell Technologies, Vancouver, BC). Cells from 3 different lines were used for experiments after 5-20 passages.
as §1
RNA extraction and PCR analysis. Total cellular RNA was extracted using RNeasy® Mini Kit columns (QIAGEN) according to the manufacturer's protocols. 1 μg of total RNA was used to synthesize cDNA using High-Capacity cDNA kit (Applied Biosystems) following the supplier's instructions. Detection of transcript levels of iNOS, IDO, COX2, IL-6, CYP1a1 and CYP1b1, were performed using the TaqMan Gene Expression Assay Kit (Applied Biosystems), using HPRT-1 as a reference. All primers were purchased from Applied Biosystems. Real-Time PCR reactions were conducted using StepOne Plus (Applied Biosystems). Data was analyzed by StepOne Software version 2.2 (Applied Biosystems). […]

mMSCs [6] = assay: ELISA on supernatants of treated mMSCs; assay type: cell-based, mouse
Method: ELISA. Quantification of PGE2 in supernatants collected from treated mMSCs and from co-cultures with splenocytes after 72 hours of culture, was performed by competitive enzyme-linked immunosorbent assay (ELISA) technique using a commercially available ELISA kit (R&D Systems, Minn., USA). IL-6, IL-17A and IFNγ in supernatants collected from treated mMSCs and/or from co-cultures with splenocytes/PBMCs were quantified using the ELISA Ready SET Go kits (eBioscience, San Diego, Calif., USA), according to the manufacturer's instructions. All determinations were made in triplicates.

hMSCs [7] = assay: FACS analysis of surface expression on human MSCs; assay type: cell-based; details: IFNγ induced
Method: as §1, §2

[8] = kynurenine 24 hours, 10 μM CH-223191
[9] = mouse MSCs, presence or absence of 10 μM CH-223191
[10] = murine MSCs, kynurenine alone vs non-treated

Cc1ccccc1N=Nc1ccc(NC(=O)c2ccnn2C)c(C)c1 [CH-223191]
EGFR surface expression (mMSCs [1]): restored EGFR expression on the cell surface | upregulation of COX2 by kynurenine (hMSCs [2]): reversed | up-regulation of Cyp1a1 by kynurenine in presence of antagonist [3, 8]: inhibited | up-regulation of Cyp1a1 by kynurenine in presence of antagonist [4, 8]: inhibited | IL-6 mRNA expression (mMSCs [5]; mMSCs): partially reversed the effects of kynurenine | enhanced expression of LIF (mMSCs [5]; [9]): reversed | upregulation of COX2 by kynurenine (mMSCs [5]; [9]): reversed

Nc1ccccc1C(=O)CC(N)C(=O)O (stereo not shown) [kynurenine]
IL-6 secretion (mMSCs [6]; mMSCs culture medium): restricted this elevation | EGFR surface expression (mMSCs [1]): significantly reduced | COX2 mRNA expression (hMSCs [2]; hMSCs, addition of kynurenine): significantly elevated | upregulation of COX2 by kynurenine (hMSCs [2]): AhR dependent | AhR activation [3]: activates | AhR activation [4]: activates | IL-6 mRNA expression (mMSCs [5]; mMSCs): restricted this elevation | HO-1 mRNA expression (mMSCs [5]; mMSCs, kynurenine added to the DCT): significantly up-regulated | COX2 mRNA expression (mMSCs [5]; mMSCs): significant additive effects on the up-regulation | upregulation of COX2 by kynurenine (mMSCs [5]; [9]): AhR dependent | COX2 expression (mMSCs [5]; [10]): no effect | IDO expression (mMSCs [5]; [10]): no effect | IL6 expression (mMSCs [5]; [10]): no effect | iNOS expression (mMSCs [5]; [10]): no effect

IFNγ
PGE2 secretion (mMSCs [6]; mMSCs supernatants): no effect | MHC I expression (mMSCs [1]): induces up-regulation | COX2 mRNA expression (mMSCs [5]; mMSCs): no effect

TGFβ
MHC I expression (mMSCs [1]): reduced the elevated expression | MHC I expression (hMSCs [7]): reduced the IFNγ induced expression | MHC II expression (hMSCs [7]): reduced the IFNγ induced expression | COX2 mRNA expression (mMSCs [5]; mMSCs): increased
